Test results taken from ChEMBL document CHEMBL5512667, “Discovery of Potent, Selective, and Orally Available IRE1α Inhibitors Demonstrating Comparable PD Modulation to IRE1 Knockdown in a Multiple Myeloma Model” (J Med Chem, 2024).
Values after ≈ are worked out from the molar mass of the structure shown.

What was measured:
[1] = Kinetic solubility of compound at pH 7.4; assay type: physicochemical; conditions: buffer, read-out: Kinetic_solubility
[2] = Half-life in CD-1 mouse at 10 mg/kg, po or 1 mg/kg, iv measured upto 24 hrs by LC-MS/MS analysis; assay type: ADME, organism-based; conditions: in vivo
[3] = Plasma protein binding in mouse incubated for 4 hrs by LC-MS/MS based rapid equilibrium dialysis method; assay type: ADME, cell-free; conditions: read-out: PPB (converted)
[4] = target: T1, Serine/threonine-protein kinase/endoribonuclease IRE1 (Homo sapiens, UniProt O75460); assay: Inhibition of His-tagged IRE1alpha (G547 to L977 residues) (unknown origin) expressed in Sf9 cells preincubated with anti-His Europium labeled antibody for 1 hr prior to compound addition followed by tracer 236 addition and measured after 1 hr by TR-FRET assay
[5] = target: T1, Serine/threonine-protein kinase/endoribonuclease IRE1; assay: Inhibition of IRE1alpha RNase activity (Q470 to L977 residues) (unknown origin) expressed in Sf9 cells using mini-XBP-1 stem-loop RNA as substrate measured every 2 mins interval for 50 mins by FRET assay
[6] = target: T1, Serine/threonine-protein kinase/endoribonuclease IRE1; assay: Inhibition of IRE1alpha RNase activity (unknown origin) using XBP1 as substrate preincubated for 1 hr followed by thapsigargin stimulation for 5 hrs by One-Glo luciferase reagent based luminescence assay
[7] = Apparent permeability across apical to basolateral side in MDCK cells at 10 uM incubated for 3 hrs by LC-MS/MS method; assay type: ADME, cell-based, Canis lupus familiaris; conditions: dog
[8] = Bioavailability in CD-1 mouse at 10 mg/kg, po or 1 mg/kg, iv measured upto 24 hrs by LC-MS/MS analysis; assay type: ADME, organism-based; conditions: in vivo
[9] = Volume of distribution at steady state in CD-1 mouse at 10 mg/kg, po or 1 mg/kg, iv measured upto 24 hrs by LC-MS/MS analysis; assay type: ADME, organism-based; conditions: in vivo

T1 sequence (O75460 whole entry, the tested form may be a part): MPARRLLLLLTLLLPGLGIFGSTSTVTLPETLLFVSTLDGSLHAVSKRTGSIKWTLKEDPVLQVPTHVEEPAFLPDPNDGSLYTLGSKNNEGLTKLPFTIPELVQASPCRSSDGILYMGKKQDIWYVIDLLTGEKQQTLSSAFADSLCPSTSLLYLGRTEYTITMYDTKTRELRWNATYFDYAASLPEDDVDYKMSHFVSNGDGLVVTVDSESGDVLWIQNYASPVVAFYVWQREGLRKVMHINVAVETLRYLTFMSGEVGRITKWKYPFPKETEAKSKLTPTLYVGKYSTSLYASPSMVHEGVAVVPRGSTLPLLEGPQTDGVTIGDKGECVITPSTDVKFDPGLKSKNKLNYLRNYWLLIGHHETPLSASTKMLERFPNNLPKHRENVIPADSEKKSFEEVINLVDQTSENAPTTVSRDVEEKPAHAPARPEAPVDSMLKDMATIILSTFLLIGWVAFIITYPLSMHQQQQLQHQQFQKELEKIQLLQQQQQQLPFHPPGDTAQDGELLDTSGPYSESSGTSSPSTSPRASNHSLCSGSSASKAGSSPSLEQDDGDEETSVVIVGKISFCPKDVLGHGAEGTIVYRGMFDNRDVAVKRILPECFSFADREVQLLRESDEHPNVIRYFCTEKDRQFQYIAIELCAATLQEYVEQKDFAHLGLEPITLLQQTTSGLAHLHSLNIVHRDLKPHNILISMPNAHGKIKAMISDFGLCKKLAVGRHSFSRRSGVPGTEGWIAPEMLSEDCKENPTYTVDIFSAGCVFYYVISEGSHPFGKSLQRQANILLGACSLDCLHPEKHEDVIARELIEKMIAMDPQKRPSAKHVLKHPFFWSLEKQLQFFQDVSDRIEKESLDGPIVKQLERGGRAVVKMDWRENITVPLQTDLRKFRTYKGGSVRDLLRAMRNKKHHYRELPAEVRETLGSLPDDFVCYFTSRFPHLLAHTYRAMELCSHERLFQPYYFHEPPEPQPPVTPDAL

C[C@@]1(F)CNC[C@@H](Nc2nccc(-c3cccnc3Oc3cc(F)c(NS(=O)(=O)Cc4ccccc4)c(F)c3F)n2)C1
solubility kinetic [1]: 46 µM (≈ 27.7 µg/mL) | half-life [2]: 1.56 h | fraction unbound at 4 h [3]: 0.009 | IC50 [4]: 0.59 nM | IC50 [5]: 7.4 nM | IC50 [6]: 22 nM | Papp A→B at 3 h, 10 µM [7]: 7.3 ×10⁻⁶ cm/s | bioavailability [8]: 109% | Vdss [9]: 1.04 L/kg

Cc1ccc2c(NS(=O)(=O)c3ccccc3Cl)cccc2c1Oc1ncccc1-c1ccnc(NC2CCC(=O)NC2)n1 (configuration not stated)
IC50 [4]: 65 nM | IC50 [5]: 2100 nM | IC50 [6]: 9000 nM

Cc1ccc2c(NS(=O)(=O)c3ccccc3Cl)cccc2c1Oc1ncccc1-c1ccnc(N[C@H]2CCCN(CC(F)(F)F)C2)n1
IC50 [4]: > 1000 nM | IC50 [5]: > 10000 nM | IC50 [6]: 28000 nM

Cc1ccc2c(NS(=O)(=O)c3ccccc3Cl)cccc2c1Oc1ncccc1-c1ccnc(Nc2cn[nH]c2)n1
IC50 [4]: > 1000 nM | IC50 [5]: > 10000 nM | IC50 [6]: > 50000 nM

Cc1ccc2c(NS(=O)(=O)c3ccccc3Cl)cccc2c1Oc1ncccc1-c1ccnc(N[C@H]2CCCOC2)n1
IC50 [4]: 42 nM | IC50 [5]: > 10000 nM | IC50 [6]: 26000 nM

Cc1cc(NS(=O)(=O)Cc2ccccc2)ccc1Oc1ncccc1-c1ccnc(N[C@H]2CCCNC2)n1
IC50 [4]: 29 nM | IC50 [5]: 170 nM | IC50 [6]: 4400 nM

O=S(=O)(Cc1ccccc1)Nc1c(F)cc(Oc2ncccc2-c2ccnc(N[C@H]3CCCNC3)n2)c(F)c1F
IC50 [4]: 3.1 nM | IC50 [5]: 4.5 nM | IC50 [6]: 47 nM | Papp A→B at 3 h, 10 µM [7]: 1.4 ×10⁻⁶ cm/s

Cc1ccc(CNC(=O)N2CCC[C@]3(CCN(Cc4ccc(Cl)c(Cl)c4)C3)C2)cc1
IC50 [4]: 660 nM | IC50 [5]: 46 nM | IC50 [6]: 5900 nM

Cc1cc(NS(=O)(=O)Cc2ccccc2)c2ccccc2c1Oc1ncccc1-c1ccnc(N[C@H]2CCCNC2)n1
IC50 [4]: 0.38 nM | IC50 [5]: 5.4 nM | IC50 [6]: 31 nM

O=S(=O)(Cc1ccccc1)Nc1ccc(Oc2ncccc2-c2ccnc(N[C@H]3CCCNC3)n2)c(F)c1F
IC50 [4]: 0.98 nM | IC50 [5]: 2.9 nM | IC50 [6]: 88 nM | Papp A→B at 3 h, 10 µM [7]: 2.1 ×10⁻⁶ cm/s

Cc1c(Oc2ncccc2-c2ccnc(N[C@H]3CCCNC3)n2)cc(F)c(NS(=O)(=O)Cc2ccccc2)c1F
IC50 [4]: 0.29 nM | IC50 [5]: 29 nM | IC50 [6]: 37 nM | Papp A→B at 3 h, 10 µM [7]: 1.1 ×10⁻⁶ cm/s

Cc1ccc2c(NS(=O)(=O)c3ccccc3Cl)cccc2c1Oc1ncccc1-c1ccnc(N[C@@H]2CNCC(F)(F)C2)n1
IC50 [4]: 17 nM | IC50 [5]: 250 nM | IC50 [6]: 2300 nM

O=S(=O)(Cc1ccccc1)Nc1c(F)cc(Oc2ncccc2-c2ccnc(N[C@@H]3CNC[C@H](CF)C3)n2)c(F)c1F
solubility kinetic [1]: 28 µM (≈ 16.9 µg/mL) | half-life [2]: 0.75 h | fraction unbound at 4 h [3]: 0.029 | IC50 [4]: 0.26 nM | IC50 [5]: 5.2 nM | IC50 [6]: 32 nM | Papp A→B at 3 h, 10 µM [7]: 2.6 ×10⁻⁶ cm/s | bioavailability [8]: 36% | Vdss [9]: 3.51 L/kg

Cc1ccc2c(NS(=O)(=O)C3CCCC3)cccc2c1Oc1ncccc1-c1ccnc(N[C@H]2CCCNC2)n1
IC50 [4]: 3.3 nM | IC50 [5]: 13 nM | IC50 [6]: 200 nM

Cc1ccc2c(NS(=O)(=O)CCC3CC3)cccc2c1Oc1ncccc1-c1ccnc(N[C@H]2CCCNC2)n1
IC50 [4]: 1.8 nM | IC50 [5]: 19 nM | IC50 [6]: 300 nM

Cc1cc(Oc2ncccc2-c2ccnc(N[C@H]3CCCNC3)n2)c(F)c(F)c1NS(=O)(=O)Cc1ccccc1
IC50 [4]: 0.29 nM | IC50 [5]: 4.5 nM | IC50 [6]: 44 nM | Papp A→B at 3 h, 10 µM [7]: 2.8 ×10⁻⁶ cm/s

CCCS(=O)(=O)Nc1cccc2c(Oc3ncccc3-c3ccnc(N[C@H]4CCCNC4)n3)c(C)ccc12
IC50 [4]: 4.7 nM | IC50 [5]: 6.3 nM | IC50 [6]: 140 nM
